Experiments:
normal bone marrow cells [1] = test: In vitro purging of normal bone marrow; assay type: cell-based; conditions: 50 μM, seven hours exposure, FIG. 21
Method: Heparinized bone marrow cells were layered over Percoll (1.077 gm/ml) (Pharmacia Fine Chemical, Piscataway N.J.) and centrifuged at 400 g at 4° C. for 10 minutes to remove neutrophils and RBCs.
For the purging process, the cells were resuspended at 1×10^6/ml in complete medium with or without 50 μM CR4. The cells were incubated with the CR4 for two and a half hours at 37° C., 5% CO2. At the end of this period the cells were thoroughly washed in medium to remove CR4 and then cultured at 2×10^5 cells/ml in IMDM (OCI, Toronto) containing 0.9% (vol/vol) methylcellulose supplemented with 30% FCS (Cansera Rexdale, ON.) or normal human plasma, a cocktail of cytokines containing G-CSF (10 ng/ml, Amgen), IL-3 (40 U/ml, Immunex), MGF (50 ng/ml, Immunex), Erythropoietin (2 u/ml, Epprex) or TPO (10 ng/ml, Amgen) and 5×10^−5M b-2-mercaptoethanol. The culture mixture was plated in 1 ml volumes into 35 mm petri dishes and incubated at 37° C., 5% CO2 in a humidified atmosphere. All cultures were evaluated at 14 days for the number of BFU-E colonies (defined as aggregates of more than 500 hemaglobinized cells or, 3 or more erythroid subcolonies), CFU-C colonies (defined as granulocyte or monocyte-macrophage cells or both) and CFU-GEMM colonies (a mixed population comprising of all elements).
For the purging process, the cells were resuspended at 1×10^6/ml in complete medium with or without 50 μM CR11. The cells were incubated with the tryrphostin for seven hours at 37° C., 5% CO2. At the end of this period the cells were thoroughly washed in medium to remove CR11 and then cultured at 2×10^5 cells/ml in IMDM (OCI, Toronto) containing 0.9% (vol/vol) methylcellulose supplementd with 30% FCS (Cansera Rexdale, ON.) or normal human plasma, a cocktail of cytokines containing G-CSF (10 ng/ml, Amgen), IL-3 (40 U/ml, Immunex), MGF (50 ng/ml, Immunex), Erythropoietin (2 u/ml, Epprex) or TPO (10 ng/ml, Amgen) and 5×10^−5M β-2-mercaptoethanol. The culture mixture was plated in 1 ml volumes into 35 mm petri dishes and incubated at 37° C., 5% CO2 in a humidified atmosphere. All cultures were evaluated at 14 days for the number of BFU-E colonies (defined as aggregates of more than 500 hemoglobinized cells or, 3 or more erythroid subcolonies), CFU-C colonies (defined as granulocyte or monocyte-macrophage cells or both) and CFU-GEMM colonies (a mixed population comprising of all elements).

[2] = system: variety of cancer cells (ALL, Philadelphia positive ALL, acute myeloid leukemia, myeloma, B-lineage lymphoma); test: Cancer cell growth in culture, summary statements; assay type: cell-based; conditions: for efficacy against a variety of cell types (Acute Lymphoblastic Leukemia, Philadelphia positive Leukemia, Acute Myeloid Leukemia): in culture
[3] = system: Philadelphia positive ALL, AML and lymphoma; test: In vitro / ex vivo purging assays, summary statements; assay type: cell-based
normal bone marrow cells [4] = test: CFU-GEMM assay, normal bone marrow differentiation in culture; assay type: cell-based; conditions: 14 days
Method: The CFU-GEMM assay was performed according to Fauser and Messner (1978, Blood, 52(6) 143–8) and Messner and Fausser (1980, Blut, 41(5) 327–33) with some variations. In brief, heparinized bone marrow cells were layered over Percoll (1.077 gm/ml) (Pharmacia Fine Chemical, Piscataway N.J.) and centrifuged at 400 g at 4° C. for 10 minutes to remove neutrophils and RBCs. The fractionated BM cells at 2×10^5 cells/ml were cultured in IMDM (OCI, Toronto) containing 0.9% (vol/vol) methylcellulose supplemented with 30% FCS (Cansera Rexdale, ON.) or normal human plasma, a cocktail of cytokines containing G-CSF (10 ng/ml, Amgen), IL-3 (40 U/ml, Immunex), MGF (50 ng/ml, Immunex), Erythropoietin (2 u/ml, Epprex) or TPO (10 ng/ml, Amgen), 5×10^−5M β-2-mercaptoethanol and the specified concentration of CR4. The culture mixture was plated in 1 ml volumes into 35 mm petri dishes and incubated at 37° C., 5% CO2 in a humidified atmosphere. All cultures were evaluated at 14 days for the number of BFU-E colonies (defined as aggregates of more than 500 hemoglobinized cells or, 3 or more erythroid subcolonies), CFU-GM colonies (defined as granulocyte or monocyte-macrophage cells or both), CFU-Meg colonies (comprising 4 or more megakaryocytes) and CFU-GEMM colonies (a mixed population comprising of all elements).
The CFU-GEMM assay was performed according to Fauser and Messner (1978, Blood, 52(6) 1243–8) and Messner and Fausser (1980, Blut, 41(5) 327–33) with some variations. In brief, heparinized bone marrow cells were layered over Percoll (1.077 gm/ml) (Pharmacia Fine Chemical, Piscataway N.J.) and centrifuged at 400 g at 4° C. for 10 minutes to remove neutrophils and RBCs. […] All cultures were evaluated at 14 days for the number of BFU-E colonies (defined as aggregates of more than 500 hemaglobinized cells or, 3 or more erythroid subcolonies) and CFU-C colonies (defined as granulocyte or monocyte-macrophage cells or both).
The CFU-GEMM assay was performed according to Fauser and Messner (1978, Blood, 52(6) 1243–8) and Messner and Fausser (1980, Blut, 41(5) 327–33) with some variations (British Journal of Haematology, 1992, 80, p40–48). […] All cultures were evaluated at 14 days for the number of BFU-E colonies (defined as aggregates of more than 500 hemoglobinized cells or, 3 or more erythroid subcolonies) and CFU-C colonies (defined as granulocyte or monocyte-macrophage cells or both).

Ph+ ALL cells = test: Killing of Philadelphia positive ALL cells in methylcellulose colony culture; assay type: cell-based, human
Method: (§1) Ph+ ALL cells were plated in 1 ml volumes, in the absence of exogenous growth factors, into 35 mm petri dishes (Nunc, Gibco) containing alpha MEM (Gibco) plus 10% FCS (Cansera Rexdale, ON.) in 0.9% (vol/vol) methylcellulose (Fluka, Switzerland) with the indicated concentrations of CR4. Cultures were set at 37° C., 5% CO2 in a humidified atmosphere. Colonies consisting of more than 20 cells were counted at 12 days or earlier using an inverted microscope.
as §1, with “ALL” for “Ph+ ALL”, “20%” for “10%”, “and” for “with”, “compound.” for “CR4.”
as §1, with “ALL” for “Ph+ ALL”, “20%” for “10%”, “and” for “with”, “CR24.” for “CR4.”, “9” for “12”, “microscope. […]” for “microscope.”

COc1cc(/C=C/C=C(\C#N)C(=O)NCc2ccc(O)c(O)c2)cc(OC)c1O [CR11, (E,E)-2-(3,4-Dihydroxybenzylamido)-3-(3,5-dimethoxy-4-hydroxystyryl)acrylonitrile]
inhibition of colony formation (normal bone marrow cells [1]; 14 days): did not result in any significant inhibition | BFU-E, CFU-GEMM and CFU-C colonies (normal bone marrow cells [1]): all normal | efficacy against a variety of cell types (Acute Lymphoblastic Leukemia, Philadelphia positive Leukemia, Acute Myeloid Leukemia) [2]: highly effective | efficacy as ex vivo purging agents [3]: effective

N#C/C(=C\C=C\c1ccccc1)C(=O)NCc1ccc(O)c(O)c1 [CR19, (E,E)-2-(3,4 Dihydroxybenzylamido)-3-styrylacrylonitrile]
efficacy against a variety of cell types (Acute Lymphoblastic Leukemia, Philadelphia positive Leukemia, Acute Myeloid Leukemia) [2]: highly effective | toxicity to cancer cells ([2]; low nanomolar doses, long term exposure): highly toxic | stimulatory effect on CFU-C colony formation (normal bone marrow cells [4]; 5 μM, FIG. 12): disappeared

N#C/C(=C\C=C\c1ccc(O)c(O)c1)C(=O)NCc1ccc(O)c(O)c1 [CR21, (E,E)-2-(3,4 Dihydroxybenzylamido)-3-(3,4-dihydroxystyryl)acrylonitrile]
concentration inhibiting cell growth (Ph+ ALL cells; Ph+ ALL, colonies at 12 days, FIG. 8): 5 µM | inhibition of BFU-E colony formation (normal bone marrow cells [4]; 20 μM, FIG. 13): inhibition

COc1cc(/C=C/C=C(\C#N)C(=O)NCCO)cc(OC)c1O [CR24, (E,E)-2-(β-Ethanolamido)-3-(3,5-dimethoxy-4-hydroxystyryl)acrylonitrile]
lowest concentration effective against Ph+ ALL cells (Ph+ ALL cells; colonies at 9 days, FIG. 10): 0.5 µM
